# Results taken from patent US11896579B2, “Combination drug” (Chugai Seiyaku Kabushiki Kaisha, priority 2015, dated 2024).
# Tested on: human non-small cell lung cancer cell line NCI-H2228 which is positive for the ALK fusion gene
# Test: NCI-H2228 xenograft tumor volume in SCID mice
# Assay type: in vivo
# Details: SCID mice with NCI-H2228 transplant; agent alone: bevacizumab 5 mg/kg i.p. once a week; cisplatin 5 mg/kg i.v. once a week; paclitaxel 12.5 mg/kg i.v. once a week; gemcitabine 60 mg/kg i.p. twice a week
# Method: In the FIGURE, the horizontal axis represents the number of days elapsed after the transplantation of the cells, and the vertical axis represents the tumor volume and the body weight change rate. Control represents control groups to which a solvent is administered and combo represents combined use groups.
row,Molecule,change in tumor volume during administration alone
1,N.N.[Cl][Pt][Cl] [cisplatin],No significant change in tumor volume
2,Nc1ccn([C@@H]2O[C@H](CO)[C@@H](O)C2(F)F)c(=O)n1 [gemcitabine],No significant change in tumor volume
3,CC(=O)O[C@H]1C(=O)[C@@]2(C)[C@H]([C@H](OC(=O)c3ccccc3)[C@]3(O)C[C@H](OC(=O)[C@H](O)[C@@H](NC(=O)c4ccccc4)c4ccccc4)C(C)=C1C3(C)C)[C@]1(OC(C)=O)CO[C@@H]1C[C@@H]2O [paclitaxel],No significant change in tumor volume
4,bevacizumab: anti-human VEGF antibody,increases in tumor volume were observed
